Among the test systems are 786-0 renal; DU-145 prostate; HL-60(TB) leukemia; HOP-62 NSCLC; KM12 colon; M14 melanoma; MALME-3M melanoma; MDA-MB-435; MDA-N; MOLT-4 leukemia; NCI-H226 lung; OVCAR-5 ovarian; OVCAR-8 ovarian; PC-3 prostate; SK-MEL-5 melanoma; UACC-62 melanoma; SNB-75 CNS.
Common to all, as to test: NCI anticancer screen, dose series, 48 h

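Grown in 96-well plates, cells were treated for 48 hours with each compound at five concentrations. Insufficient inhibition: endpoint recorded as highest concentration tested. At the TGI there is no net growth.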

With `C=CCN1C(=O)CC2[C@@H]3CCc4cc(O)ccc4C3CC[C@]2(C)C1=O` (stereo not given in full), the TGI with 786-0 renal, in the assay with DU-145 prostate, in the assay on HL-60(TB) leukemia, with HOP-62 NSCLC, in the assay with KM12 colon and in the assay with M14 melanoma was above 10 µM each time. Further, the TGI in the assay on MALME-3M melanoma, in the assay on MDA-MB-435, in the assay on MDA-N, with MOLT-4 leukemia, in the assay on NCI-H226 lung and with OVCAR-5 ovarian was above 10 µM each time. The TGI with OVCAR-8 ovarian, in the assay on PC-3 prostate, with SK-MEL-5 melanoma and in the assay with UACC-62 melanoma was above 10 µM each time.
Consider `COc1cc2nc3n(c2cc1OC)C(O)c1c(Cl)nc(SC)nc1S3` (stereo not given), for which the TGI in the assay with 786-0 renal was 7.85 µM; in the assay with DU-145 prostate, 24.1 µM; in the assay on HOP-62 NSCLC, 26.1 µM; in the assay on KM12 colon, above 100 µM; in the assay with M14 melanoma, 21.8 µM; in the assay with MALME-3M melanoma it was 8.8 µM. Further, the TGI was above 64.3 µM in the assay with MDA-MB-435; 24 µM with MDA-N; above 48.9 µM in the assay on MOLT-4 leukemia; 28 µM with NCI-H226 lung; above 95.1 µM in the assay with OVCAR-5 ovarian; 7.06 µM in the assay with OVCAR-8 ovarian. In addition, the TGI is above 49.8 µM in the assay with PC-3 prostate, 8.94 µM in the assay with SK-MEL-5 melanoma, above 68 µM with SNB-75 CNS and 25.2 µM in the assay on UACC-62 melanoma.
For `O=C(CC(NC(=O)OCc1ccccc1)C(=O)NC1Cc2ccccc2C1=O)OCc1ccccc1` (stereo not given), the TGI in the assay with 786-0 renal, with DU-145 prostate, in the assay on HOP-62 NSCLC, with KM12 colon, in the assay on M14 melanoma and in the assay on MALME-3M melanoma was above 100 µM each time. Besides, the TGI in the assay with MDA-MB-435, in the assay with MDA-N, with MOLT-4 leukemia, in the assay with NCI-H226 lung, in the assay on OVCAR-5 ovarian and in the assay with OVCAR-8 ovarian was above 100 µM throughout. The TGI in the assay with PC-3 prostate, in the assay on SK-MEL-5 melanoma, with SNB-75 CNS and with UACC-62 melanoma was above 100 µM each time.
With `O=C(O)c1ccccc1CN1CCCC(C(=O)O)C1` (stereo not given), the TGI with 786-0 renal, in the assay with DU-145 prostate, in the assay with HOP-62 NSCLC, in the assay with KM12 colon, with M14 melanoma and in the assay with MALME-3M melanoma was above 100 µM throughout. In addition, the TGI in the assay with MDA-MB-435, with MDA-N, in the assay on MOLT-4 leukemia, in the assay on NCI-H226 lung, in the assay on OVCAR-5 ovarian and with OVCAR-8 ovarian was above 100 µM each time. Moreover, the TGI in the assay with PC-3 prostate, in the assay on SK-MEL-5 melanoma, with SNB-75 CNS and in the assay with UACC-62 melanoma was above 100 µM in each case.
Take `COc1ccc(N2C(=O)c3cc([N+](=O)[O-])cnc3S2(=O)=O)cc1`: the TGI in the assay on 786-0 renal, with DU-145 prostate, in the assay with HL-60(TB) leukemia, in the assay with HOP-62 NSCLC, with KM12 colon and with MALME-3M melanoma was above 100 µM throughout. Further, the TGI in the assay on MDA-MB-435, with MDA-N, in the assay on MOLT-4 leukemia, in the assay on NCI-H226 lung, in the assay on OVCAR-5 ovarian and with OVCAR-8 ovarian was above 100 µM throughout. For the same compound, the TGI with PC-3 prostate, with SNB-75 CNS and in the assay with UACC-62 melanoma was above 100 µM throughout.
For `O=C(c1ccc2ccccc2c1)C1(I)S(=O)(=O)OCCOS1(=O)=O`, the TGI in the assay with 786-0 renal, with DU-145 prostate, in the assay on HL-60(TB) leukemia, in the assay on HOP-62 NSCLC, in the assay on KM12 colon and with M14 melanoma was above 100 µM each time. Also, the TGI with MALME-3M melanoma, with MDA-MB-435, in the assay with MDA-N, in the assay on MOLT-4 leukemia, in the assay on OVCAR-5 ovarian and in the assay with OVCAR-8 ovarian was above 100 µM in each case. Also, the TGI in the assay with PC-3 prostate and in the assay with SK-MEL-5 melanoma was above 100 µM each time.
As for `CSC(=S)CC(O)[C@@H]1CC2c3ccccc3C1c1ccccc12` (stereo not given in full), the TGI turned out to be 41.3 µM with 786-0 renal; 30.8 µM in the assay on DU-145 prostate; 7.96 µM with HL-60(TB) leukemia; 38.2 µM with HOP-62 NSCLC; 25.5 µM in the assay on KM12 colon; 27 µM in the assay with M14 melanoma. In addition, the TGI in the assay with MALME-3M melanoma was 39.1 µM; in the assay on MDA-MB-435, 26 µM; in the assay with MDA-N it was 28.3 µM; in the assay with MOLT-4 leukemia, 8.24 µM; in the assay on NCI-H226 lung it was 79.1 µM; in the assay with OVCAR-5 ovarian, 33.4 µM. For the same compound, the TGI in the assay on OVCAR-8 ovarian turned out to be 39.2 µM; in the assay on PC-3 prostate, 48.6 µM; in the assay on SK-MEL-5 melanoma, 30.5 µM; with UACC-62 melanoma it was 25.4 µM.
For the compound `C#CCN(Cc1ccc2nc(-c3ccccc3)c(Cl)nc2c1)c1ccc(F)cc1`, the TGI was above 100 µM in the assay on 786-0 renal; above 100 µM with DU-145 prostate; 87.2 µM in the assay on HL-60(TB) leukemia; above 100 µM in the assay with HOP-62 NSCLC; above 100 µM with KM12 colon; above 100 µM in the assay on M14 melanoma. The TGI in the assay on MALME-3M melanoma was above 100 µM; in the assay with MDA-MB-435, above 100 µM; in the assay with MDA-N, above 100 µM; in the assay with MOLT-4 leukemia, 44.6 µM; with OVCAR-5 ovarian, above 100 µM; in the assay with OVCAR-8 ovarian, above 100 µM. Further, the TGI in the assay with PC-3 prostate, in the assay on SK-MEL-5 melanoma, with SNB-75 CNS and in the assay on UACC-62 melanoma was above 100 µM throughout.
With `Cc1ccc(-c2n[nH]c(=O)n2/N=C\c2ccccc2O)cc1`, the TGI in the assay on 786-0 renal, in the assay with DU-145 prostate, in the assay on HL-60(TB) leukemia, in the assay on HOP-62 NSCLC, with KM12 colon and with M14 melanoma was above 100 µM each time. The TGI in the assay on MALME-3M melanoma, with MDA-MB-435, with MDA-N, in the assay on MOLT-4 leukemia, with NCI-H226 lung and in the assay on OVCAR-5 ovarian was above 100 µM throughout. Besides, the TGI in the assay with OVCAR-8 ovarian, in the assay with PC-3 prostate, in the assay on SK-MEL-5 melanoma and in the assay with SNB-75 CNS was above 100 µM in each case.
With `CC(C)(C)C(=O)/C=C(\OB(F)F)C(C)(C)C`, the TGI with 786-0 renal, in the assay on DU-145 prostate, with HL-60(TB) leukemia, with HOP-62 NSCLC, in the assay on KM12 colon and in the assay with M14 melanoma was above 100 µM in each case. The TGI in the assay on MALME-3M melanoma, in the assay on MDA-MB-435, with MDA-N, with MOLT-4 leukemia, in the assay with NCI-H226 lung and in the assay on OVCAR-5 ovarian was above 100 µM throughout. Further, the TGI with OVCAR-8 ovarian, with PC-3 prostate, in the assay with SK-MEL-5 melanoma and in the assay with SNB-75 CNS was above 100 µM in each case.
Regarding `CC(=O)N1C=Cc2c(c(C)c3c([nH]c4ccccc43)c2C)C1`, the TGI was 6.73 µM with 786-0 renal; 26.6 µM in the assay with DU-145 prostate; above 100 µM with HL-60(TB) leukemia; 17.5 µM in the assay with HOP-62 NSCLC; 12 µM in the assay with KM12 colon; 20.9 µM in the assay with M14 melanoma. Also, the TGI in the assay on MALME-3M melanoma was 23.1 µM; in the assay with MDA-MB-435, 27.4 µM; with MDA-N, 27.6 µM; in the assay on MOLT-4 leukemia, above 100 µM; in the assay with NCI-H226 lung, 31.9 µM; in the assay on OVCAR-5 ovarian, 24 µM. In addition, the TGI with OVCAR-8 ovarian came to 29.1 µM; with PC-3 prostate it was 19.6 µM; with SK-MEL-5 melanoma, 33.5 µM.
For the compound `CN(Cc1cnc2nc(N)nc(N)c2n1)c1ccc(C(=O)NCCCS(=O)(=O)O)cc1`, the TGI in the assay on 786-0 renal, in the assay on DU-145 prostate, in the assay on HOP-62 NSCLC, in the assay on KM12 colon, with M14 melanoma and in the assay on MALME-3M melanoma was above 100 µM each time. For the same compound, the TGI with MDA-MB-435, with MDA-N, in the assay on MOLT-4 leukemia, with NCI-H226 lung, in the assay on OVCAR-5 ovarian and with OVCAR-8 ovarian was above 100 µM each time. Further, the TGI in the assay on PC-3 prostate, in the assay with SK-MEL-5 melanoma, with SNB-75 CNS and with UACC-62 melanoma was above 100 µM throughout.
For `N#Cc1cc2c(cc1C#N)SCCSCCCSCCS2`, the TGI in the assay on 786-0 renal was 19 µM; with DU-145 prostate it was above 100 µM; in the assay on HOP-62 NSCLC it was 4.95 µM; in the assay on KM12 colon it was above 100 µM; in the assay on M14 melanoma, above 100 µM; with MALME-3M melanoma it was above 65.1 µM. In addition, the TGI in the assay with MDA-MB-435 was above 100 µM; with MDA-N, above 100 µM; in the assay with MOLT-4 leukemia, above 100 µM; in the assay on NCI-H226 lung, above 84.8 µM; with OVCAR-5 ovarian, above 100 µM; in the assay with OVCAR-8 ovarian, 31.8 µM. Moreover, the TGI in the assay on PC-3 prostate was above 82.8 µM; with SK-MEL-5 melanoma, above 100 µM; with SNB-75 CNS, 18.2 µM; in the assay with UACC-62 melanoma it was 27.6 µM.
In the case of `O=C1CSCC(=O)Nc2ccccc2N1`, the TGI with 786-0 renal, with DU-145 prostate, in the assay with HL-60(TB) leukemia, in the assay on HOP-62 NSCLC, with KM12 colon and in the assay with M14 melanoma was above 100 µM throughout. Besides, the TGI in the assay on MALME-3M melanoma, with MDA-MB-435, in the assay on MDA-N, in the assay with MOLT-4 leukemia, in the assay on NCI-H226 lung and in the assay on OVCAR-5 ovarian was above 100 µM throughout. Further, the TGI in the assay on OVCAR-8 ovarian, with PC-3 prostate, with SK-MEL-5 melanoma and with UACC-62 melanoma was above 100 µM in each case.

(Values after PubChem BioAssay (NCI).)
